# Assay results reported in paper PMC4757881 (Scientific Reports, 2016).
# Columns and labels:
# CB2 receptor (hCB2) = target: T1, CB2 receptor (hCB2) (Homo sapiens, UniProt P34972); test: radioligand competition ([3H]CP55940) on HEK293 membranes expressing hCB2; agonist in CRE-Luc assay; type: binding
# T1 construct: gene CNR2
# PPARγ = target: T2, PPARγ (Homo sapiens, UniProt P37231); test: fluorescence polarization competition (PolarScreen PPARγ Competitor Assay); GAL4-PPARγ transactivation; type: binding
# T2 construct: gene PPARG
# T2 sequence (P37231 1-505): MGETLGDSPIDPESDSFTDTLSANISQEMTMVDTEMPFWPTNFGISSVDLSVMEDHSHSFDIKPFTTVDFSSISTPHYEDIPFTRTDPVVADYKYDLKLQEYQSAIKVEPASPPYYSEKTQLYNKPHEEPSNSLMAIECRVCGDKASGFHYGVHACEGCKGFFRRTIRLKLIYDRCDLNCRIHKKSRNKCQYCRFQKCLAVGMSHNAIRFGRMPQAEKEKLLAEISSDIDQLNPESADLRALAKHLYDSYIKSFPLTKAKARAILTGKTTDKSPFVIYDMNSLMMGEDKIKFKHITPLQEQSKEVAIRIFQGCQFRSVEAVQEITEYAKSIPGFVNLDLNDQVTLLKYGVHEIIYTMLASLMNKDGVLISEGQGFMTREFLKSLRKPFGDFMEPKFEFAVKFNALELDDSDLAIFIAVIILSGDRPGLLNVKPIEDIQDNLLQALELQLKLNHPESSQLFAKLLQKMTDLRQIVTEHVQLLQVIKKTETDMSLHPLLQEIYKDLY
# T1 sequence (P34972 whole entry): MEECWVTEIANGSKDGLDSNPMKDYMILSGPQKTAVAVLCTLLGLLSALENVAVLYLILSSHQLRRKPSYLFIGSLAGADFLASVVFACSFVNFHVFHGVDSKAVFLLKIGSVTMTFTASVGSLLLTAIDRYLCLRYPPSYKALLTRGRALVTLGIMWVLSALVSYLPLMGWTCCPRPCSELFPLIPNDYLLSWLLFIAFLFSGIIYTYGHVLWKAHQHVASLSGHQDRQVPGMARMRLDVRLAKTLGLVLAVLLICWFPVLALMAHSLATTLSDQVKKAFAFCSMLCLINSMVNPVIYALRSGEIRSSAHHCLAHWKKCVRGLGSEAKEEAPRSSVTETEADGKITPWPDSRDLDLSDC
compound,measurement,setting,value
C=C(C)[C@@H]1CCC(C)=C[C@H]1C1=C(O)C(=O)C(CCCCC)=C(NCc2ccccc2)C1=O [VCE-004.8],Ki,CB2 receptor (hCB2),0.17 ± 0.05 µM
same,IC50,PPARγ,1.7 µM
